Consider 34 compounds from patent EP4660184A1 (Eurofarma Laboratórios S.A., priority 2023, dated 2024).

A word on the IC50: it is the concentration needed to halve the response being measured.

In assay [1] the target is T1, human sodium channels Nav 1.8 (Homo sapiens, UniProt Q9Y5Y9).
T1 construct: expressed in transfected cells
The experiment in a line: Automated whole-cell voltage-clamp (ScreenPatch 384P) sodium current block, Nav 1.8. The assay is classed as cell-based. The note with it: CHO cells stably expressing human Nav 1.8; inactivation step -40 mV for 8 seconds, test step 10 mV (TP1A); exposure at least five minutes; room temperature; mean if two or more assays; read-out: Nav1.8 IC50. Here is the method: (§1) Biological assays were performed on Chinese hamster ovary (CHO) cells that express human sodium channels Nav 1.8 or Nav 1.7 in a stable manner.
(§2) The experimental protocol voltage-clamp using the whole cell configuration was established on the automated ScreenPatch® 384P platform (SP384PE, Nanion Technologies, Livingston, NJ) and the results were recorded with a Nanion 384-well Patch Clamp chip (NPC) (Nanion Technologies, Livingston, NJ).
(§3) Formula I compounds were diluted in eight concentrations in the extracellular solution composed of saline saline solution, buffered with HEPES (mM): NaCl, 137; KCl, 4; CaCl2, 3,8; MgCl2, 1; HEPES, 10; Glucose, 10; pH 7.4. The […], 50; CsF, 90; MgCl2, 5; EGTA, 5; HEPES, 10; pH 7.2. The duration of exposure of each compound with cells expressing Nav 1.7 or Nav 1.8 was at least five minutes and the assays were performed at room temperature.
(§4) The measurements of the sodium currents of Nav 1.8 and Nav 1.7 were obtained using the voltage protocol described below.
(§5) A holding voltage of -100 mV was established followed by an inactivation voltage step at -40 mV for 8 seconds, followed by a step of -100 mV for 20 ms, followed by a 20 ms step for 10 mV for Nav 1.8 or 0 mV for Nav 1.7 (TP1A) before returning to the holding voltage of -100 mV.
(§6) The protocol was repeated at a frequency of 0.05 Hz and the amplitude of the current was quantified throughout the recording of the TP1A phase. The variation in the amplitude of the peak current was evaluated according to the formula described below, after exposing the cells expressing the channels to each concentration of the different compounds: % Block = (1−(ITP1A,molecule/ITP1A,basal)×100%, [formula] wherein ITP1A,basal and ITP1A,molecule represent the peaks of sodium current input into TP1A before exposure to the compound and in the presence of the compound, respectively.
(§7) Data were obtained by nonlinear regression (nonlinear least squares) with XLfit for Excel (Microsoft, Redmond, WA).
(§8) The compounds were tested in at least one assay to obtain the value of CI50. For compounds that were tested in two or more assays, the results are described as the mean of the CI50 values.

Assay [2] addresses T2, human sodium channels Nav 1.7 (Homo sapiens, UniProt Q15858).
T2 construct: expressed in transfected cells
Kind of assay: Automated whole-cell voltage-clamp (ScreenPatch 384P) sodium current block, Nav 1.7. The note with it: CHO cells stably expressing human Nav 1.7; inactivation step -40 mV for 8 seconds, test step 0 mV (TP1A); exposure at least five minutes; room temperature; mean if two or more assays; read-out: Nav1.7 IC50. Type of assay: cell-based. Here is the method: as §1, §2, §3, §4, §5, §6, §7, §8

Bounds are passed on as bounds.

T2 sequence (Q15858 whole entry): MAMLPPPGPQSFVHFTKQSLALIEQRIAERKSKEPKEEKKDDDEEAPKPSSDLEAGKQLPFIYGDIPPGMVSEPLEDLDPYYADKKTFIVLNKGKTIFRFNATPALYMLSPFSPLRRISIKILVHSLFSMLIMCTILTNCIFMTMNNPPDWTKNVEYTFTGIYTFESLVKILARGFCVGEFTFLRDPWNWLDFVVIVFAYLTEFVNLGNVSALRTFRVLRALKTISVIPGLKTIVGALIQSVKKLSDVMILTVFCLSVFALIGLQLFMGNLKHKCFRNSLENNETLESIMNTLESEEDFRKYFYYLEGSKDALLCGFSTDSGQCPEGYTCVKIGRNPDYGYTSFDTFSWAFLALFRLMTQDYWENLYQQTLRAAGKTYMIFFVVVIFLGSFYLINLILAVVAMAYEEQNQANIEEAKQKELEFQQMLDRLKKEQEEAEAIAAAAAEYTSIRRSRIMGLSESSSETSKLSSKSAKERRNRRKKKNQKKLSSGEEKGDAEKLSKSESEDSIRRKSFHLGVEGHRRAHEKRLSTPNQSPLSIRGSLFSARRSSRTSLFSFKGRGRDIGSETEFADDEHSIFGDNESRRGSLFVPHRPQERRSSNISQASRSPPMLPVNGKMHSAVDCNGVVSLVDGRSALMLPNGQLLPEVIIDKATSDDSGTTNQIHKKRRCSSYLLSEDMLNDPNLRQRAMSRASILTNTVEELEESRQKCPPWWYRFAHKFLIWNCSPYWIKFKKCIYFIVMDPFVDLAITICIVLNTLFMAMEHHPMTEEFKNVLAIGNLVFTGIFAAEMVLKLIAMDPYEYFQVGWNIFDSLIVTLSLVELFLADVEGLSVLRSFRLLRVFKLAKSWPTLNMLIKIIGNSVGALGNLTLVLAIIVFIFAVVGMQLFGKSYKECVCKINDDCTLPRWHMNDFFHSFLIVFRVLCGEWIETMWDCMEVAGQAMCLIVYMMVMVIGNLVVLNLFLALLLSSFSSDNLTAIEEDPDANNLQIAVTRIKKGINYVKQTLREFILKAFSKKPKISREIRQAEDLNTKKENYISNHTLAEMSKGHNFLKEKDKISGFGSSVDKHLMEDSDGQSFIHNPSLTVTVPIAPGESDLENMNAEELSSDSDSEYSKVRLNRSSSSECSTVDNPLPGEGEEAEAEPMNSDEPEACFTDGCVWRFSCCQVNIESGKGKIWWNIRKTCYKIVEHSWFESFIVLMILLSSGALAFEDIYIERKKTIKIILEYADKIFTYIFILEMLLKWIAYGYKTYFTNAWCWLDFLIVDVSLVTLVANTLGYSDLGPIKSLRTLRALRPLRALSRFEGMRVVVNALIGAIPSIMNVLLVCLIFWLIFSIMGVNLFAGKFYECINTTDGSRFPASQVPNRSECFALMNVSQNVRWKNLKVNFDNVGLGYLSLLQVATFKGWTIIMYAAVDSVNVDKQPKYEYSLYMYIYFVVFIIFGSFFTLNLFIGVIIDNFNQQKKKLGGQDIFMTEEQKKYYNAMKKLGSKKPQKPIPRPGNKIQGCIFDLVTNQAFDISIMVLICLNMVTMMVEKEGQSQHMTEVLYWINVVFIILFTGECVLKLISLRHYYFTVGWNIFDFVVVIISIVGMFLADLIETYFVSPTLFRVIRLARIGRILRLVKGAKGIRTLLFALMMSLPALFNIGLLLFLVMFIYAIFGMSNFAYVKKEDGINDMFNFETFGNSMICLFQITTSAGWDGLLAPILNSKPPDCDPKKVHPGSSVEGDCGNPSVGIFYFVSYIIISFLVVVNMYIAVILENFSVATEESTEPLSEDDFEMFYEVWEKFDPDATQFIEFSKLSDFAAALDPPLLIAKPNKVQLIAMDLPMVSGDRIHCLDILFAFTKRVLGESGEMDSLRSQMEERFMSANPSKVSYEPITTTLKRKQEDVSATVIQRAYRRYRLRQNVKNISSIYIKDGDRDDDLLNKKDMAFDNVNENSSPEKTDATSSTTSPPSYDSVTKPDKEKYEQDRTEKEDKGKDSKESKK
T1 sequence (Q9Y5Y9 whole entry): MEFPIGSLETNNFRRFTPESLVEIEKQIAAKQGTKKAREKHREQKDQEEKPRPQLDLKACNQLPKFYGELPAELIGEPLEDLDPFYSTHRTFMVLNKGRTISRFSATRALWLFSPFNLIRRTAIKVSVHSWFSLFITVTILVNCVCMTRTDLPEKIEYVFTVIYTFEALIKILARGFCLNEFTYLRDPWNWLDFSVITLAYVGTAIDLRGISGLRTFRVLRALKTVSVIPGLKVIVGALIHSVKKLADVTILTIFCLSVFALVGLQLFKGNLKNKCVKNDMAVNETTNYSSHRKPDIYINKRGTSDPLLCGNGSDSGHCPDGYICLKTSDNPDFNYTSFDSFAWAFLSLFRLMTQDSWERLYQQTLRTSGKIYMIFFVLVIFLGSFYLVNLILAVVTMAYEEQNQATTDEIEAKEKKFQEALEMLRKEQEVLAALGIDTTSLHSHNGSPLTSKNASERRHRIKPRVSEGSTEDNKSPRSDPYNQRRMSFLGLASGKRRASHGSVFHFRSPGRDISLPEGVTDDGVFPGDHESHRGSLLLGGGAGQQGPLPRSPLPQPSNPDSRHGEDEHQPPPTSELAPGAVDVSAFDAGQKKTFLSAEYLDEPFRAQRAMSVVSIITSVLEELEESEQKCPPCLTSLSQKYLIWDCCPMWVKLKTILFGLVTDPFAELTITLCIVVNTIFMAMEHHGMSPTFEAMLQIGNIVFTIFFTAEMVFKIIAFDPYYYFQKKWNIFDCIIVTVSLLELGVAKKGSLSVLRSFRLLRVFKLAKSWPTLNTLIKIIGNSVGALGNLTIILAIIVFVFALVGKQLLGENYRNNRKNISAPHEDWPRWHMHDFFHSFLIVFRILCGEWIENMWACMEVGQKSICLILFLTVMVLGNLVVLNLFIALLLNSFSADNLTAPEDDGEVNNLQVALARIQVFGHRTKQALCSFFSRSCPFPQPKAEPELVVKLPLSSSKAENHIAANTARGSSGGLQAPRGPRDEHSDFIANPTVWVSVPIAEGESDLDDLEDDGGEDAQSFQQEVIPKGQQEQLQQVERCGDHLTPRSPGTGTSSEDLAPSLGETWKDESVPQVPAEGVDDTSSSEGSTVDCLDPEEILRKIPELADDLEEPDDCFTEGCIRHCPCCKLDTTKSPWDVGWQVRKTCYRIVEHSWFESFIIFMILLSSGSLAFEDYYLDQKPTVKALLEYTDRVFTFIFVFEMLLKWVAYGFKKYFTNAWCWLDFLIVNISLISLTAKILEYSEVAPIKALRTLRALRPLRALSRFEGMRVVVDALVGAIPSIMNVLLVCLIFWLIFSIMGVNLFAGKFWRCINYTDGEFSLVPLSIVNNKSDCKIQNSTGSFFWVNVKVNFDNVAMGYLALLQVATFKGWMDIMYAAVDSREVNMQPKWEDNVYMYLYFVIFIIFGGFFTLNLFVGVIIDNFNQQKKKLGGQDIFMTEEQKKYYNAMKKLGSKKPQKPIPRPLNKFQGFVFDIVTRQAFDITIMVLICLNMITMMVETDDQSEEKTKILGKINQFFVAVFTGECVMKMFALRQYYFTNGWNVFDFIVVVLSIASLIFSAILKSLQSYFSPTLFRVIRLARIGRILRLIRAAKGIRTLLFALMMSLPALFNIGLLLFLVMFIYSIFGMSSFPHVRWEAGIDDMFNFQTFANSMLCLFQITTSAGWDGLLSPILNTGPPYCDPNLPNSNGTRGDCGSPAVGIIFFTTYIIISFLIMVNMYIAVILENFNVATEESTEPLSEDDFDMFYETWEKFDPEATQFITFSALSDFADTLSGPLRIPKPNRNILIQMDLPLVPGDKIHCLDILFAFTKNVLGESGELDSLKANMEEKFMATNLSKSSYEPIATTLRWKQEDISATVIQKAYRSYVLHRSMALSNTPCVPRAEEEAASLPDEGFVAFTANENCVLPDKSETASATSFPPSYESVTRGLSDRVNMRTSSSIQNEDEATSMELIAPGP

With `[2H]C([2H])([2H])C([2H])([2H])Oc1ccc(-c2cncc(C(=O)NOCc3cc(OC)ccc3F)n2)cn1` [Compound 48, 6-(6-(ethoxy-d5)pyridine-3-yl)-N-((2-fluoro-5-methoxybenzyl)oxy)pyrazine-2-carboxamide], the IC50 in assay [1] and in assay [2] was above 1000 nM throughout.

On to `CCOc1ccc(-c2cncc(C(=O)NOCc3cc(O)ccc3F)n2)cn1` [Compound 43, 6-(6-ethoxypyridine-3-yl)-N-((2-fluoro-5-hydroxybenzyl)oxy)pyrazine-2-carboxamide], for which the IC50 in assay [1] and in assay [2] was above 1000 nM in each case.

As for `CCOc1ccc(-c2cncc(C(=O)NOCc3cc(OC)ccc3F)n2)cn1` [Compound 37, 6-(6-ethoxypyridine-3-yl)-N-((2-fluoro-5-methoxybenzyl)oxy)pyrazine-2-carboxamide], the IC50 in assay [1] was below 500 nM; in assay [2], above 1000 nM.

With `COc1cnc(F)c(CONC(=O)c2cccc(-c3ccc(OC(F)F)nc3)n2)c1` [Compound 114], the 50% inhibitory concentration (IC50) in assay [1] was 500 to 1000 nM; in assay [2], above 1000 nM.

`COc1cnc(F)c(CONC(=O)c2ccnc(-c3ccc(OC(F)F)nc3)n2)c1` [Compound 117]: the IC50 in assay [1] and in assay [2] was above 1000 nM throughout.

For `COc1ccc(F)c(CONC(=O)c2cnc(F)c(-c3ccc(OC(F)F)nc3)n2)c1` [Compound 124], the IC50 in assay [1] and in assay [2] was above 1000 nM each time.

With `O=C(NOCc1ccncc1)c1cncc(-c2ccc(OC(F)(F)F)nc2)n1` [Compound 75], the IC50 in assay [1] and in assay [2] was below 500 nM each time.

Turning to `CCOc1ccc(-c2cncc(C(=O)NOCc3cc(C)cc(C)c3)n2)cc1` [Compound 21, N-((3,5-dimethylbenzyl)oxy)-6-(4-ethoxyphenyl)pyrazine-2-carboxamide], the IC50 in assay [1] and in assay [2] was above 1000 nM throughout.

`CCOc1ccc(-c2cncc(C(=O)NOCc3ncoc3C)n2)cn1` [Compound 57, 6-(6-ethoxypyridine-3-yl)-N-((5-methyloxazole-4-yl)methoxy)pyrazine-2-carboxamide]: the IC50 in assay [1] and in assay [2] was above 1000 nM each time.

In the case of `CCOc1ccc(-c2cncc(C(=O)NOCc3occc3OC)n2)cn1` [Compound 66, 6-(6-ethoxypyridine-3-yl)-N-((3-methoxyfuran-2-yl)methoxy)pyrazine-2-carboxamide], the IC50 in assay [1] and in assay [2] was above 1000 nM throughout.

Regarding `COc1cc(CONC(=O)c2cncc(-c3ccc(OC(F)F)nc3)n2)c(F)cn1` [Compound 79, 6-(6-(difluoromethoxy)pyridine-3-yl)-N-((5-fluoro-2-methoxypyridine-4-yl)methoxy)pyrazine-2-carboxamide], the IC50 in assay [1] and in assay [2] was above 1000 nM each time.

With `CCOc1ccc(-c2cncc(C(=O)NOCc3cc(OC)cnc3C)n2)cc1` [Compound 18, 6-(4-ethoxyphenyl)-N-((5-methoxy-2-methylpyridine-3-yl)methoxy)pyrazine-2-carboxamide], the half-maximal inhibitory concentration (IC50) is below 500 nM in assay [1] and 500 to 1000 nM in assay [2].

For `CCOc1ccc(-c2cncc(C(=O)NOCc3nccn3CC)n2)cn1` [Compound 61, 6-(6-ethoxypyridine-3-yl)-N-((1-ethyl-1H-imidazole-2-yl)methoxy)pyrazine-2-carboxamide], the IC50 in assay [1] was below 500 nM; in assay [2] it was above 1000 nM.

For the compound `CCOc1ccc(-c2cncc(C(=O)NOCc3ccnn3C)n2)cn1` [Compound 58], the IC50 in assay [1] and in assay [2] was above 1000 nM each time.

For the compound `CCOc1ccc(-c2cncc(C(=O)NOCc3cc(OC)ccc3C)n2)cn1` [Compound 47, 6-(6-ethoxypyridine-3-yl)-N-((5-methoxy-2-methylbenzyl)oxy)pyrazine-2-carboxamide], the IC50 in assay [1] and in assay [2] was above 1000 nM each time.

Turning to `CCOc1ccc(-c2nccc(C(=O)NOCc3cc(OC)cnc3F)n2)cn1` [Compound 110], the IC50 is below 500 nM in assay [1] and 500 to 1000 nM in assay [2].

As for `CCOc1ccc(-c2cncc(C(=O)NOCc3cc(O)ccc3F)n2)cc1` [Compound 14, 6-(4-ethoxyphenyl)-N-((2-fluoro-5-hydroxybenzyl)oxy)pyrazine-2-carboxamide], the values for the IC50 in assay [1] and in assay [2] were below 500 nM and above 1000 nM, respectively.

With `COc1cnc(F)c(CONC(=O)c2nc(-c3ccc(OC(F)F)nc3)cnc2N)c1` [Compound 120], the IC50 in assay [1] and in assay [2] was above 1000 nM in each case.

With `COc1cnc(F)c(CONC(=O)c2cncc(-c3ccc(OC(F)F)nc3)n2)c1` [Compound 78], the IC50 in assay [1] and in assay [2] was above 1000 nM in each case.

For `CCOc1ccc(-c2cncc(C(=O)NOCc3cc(OC)cnc3C)n2)cn1` [Compound 46, 6-(6-ethoxypyridine-3-yl)-N-((5-methoxy-2-methylpyridine-3-yl)methoxy)pyrazine-2-carboxamide], the IC50 in assay [1] and in assay [2] was above 1000 nM each time.

For the compound `CCOc1ccc(-c2cncc(C(=O)NOCc3cc(C(C)N)ccc3F)n2)cc1` (centres unmarked) [Compound 17, N-((5-(1-aminoethyl)-2-fluorobenzyl)oxy)-6-(4-ethoxyphenyl)pyrazine-2-carboxamide], the IC50 was below 500 nM in assay [1] and above 1000 nM in assay [2].

On to `COc1ccc(F)c(CONC(=O)c2cncc(-c3ccc(OCCC4CN(C)C4)cc3)n2)c1` [Compound 27, N-((2-fluoro-5-methoxybenzyl)oxy)-6-(4-(2-(1-methylazetidine-3-yl)ethoxy)phenyl)pyrazine-2-carboxamide], for which the IC50 in assay [1] is below 500 nM; in assay [2], above 1000 nM.

Consider `CCOc1ccc(-c2cccc(C(=O)NOCc3cc(OC)cnc3F)n2)cn1` [Compound 107], for which the IC50 in assay [1] and in assay [2] was above 1000 nM throughout.

In the case of `CCOc1cc(C)c(-c2cncc(C(=O)NOCc3cc(OC)ccc3F)n2)cn1` [Compound 93], the IC50 in assay [1] and in assay [2] was above 1000 nM each time.

As to `COc1ccc(F)c(CONC(=O)c2cncc(-c3ccc([S+](C)[O-])nc3)n2)c1` (centres unmarked) [Compound 84], the IC50 in assay [1] is below 500 nM; in assay [2], above 1000 nM.

As for `CCOc1ccc(-c2cnc(F)c(C(=O)NOCc3cc(OC)ccc3F)n2)cn1` [Compound 105], the IC50 in assay [1] is 500 to 1000 nM; in assay [2], above 1000 nM.

Regarding `CCOc1ccc(-c2cncc(C(=O)NOCc3cccc(O)c3)n2)cn1` [Compound 35, 6-(6-ethoxypyridine-3-yl)-N-((3-hydroxybenzyl)oxy)pyrazine-2-carboxamide], the values for the half-maximal inhibitory concentration (IC50) in assay [1] and in assay [2] were below 500 nM and above 1000 nM, respectively.

As for `CCOc1ccc(-c2cncc(C(=O)NOCc3cc(OC)ccc3F)c2)cn1` [Compound 108], the IC50 in assay [1] and in assay [2] was above 1000 nM throughout.

As for `CCOc1ccc(-c2nc(C(=O)NOCc3cc(OC)ccc3F)cnc2O)cn1` [Compound 100], the IC50 is below 500 nM in assay [1] and above 1000 nM in assay [2].

As for `COc1ccc(F)c(CONC(=O)c2cncc(-c3ccc(OC4CNC4)cc3)n2)c1` [Compound 22, 6-(4-(azetidin-3-yloxy)phenyl)-N-((2-fluoro-5-methoxybenzyl)oxy)pyrazine-2-carboxamide], the half-inhibitory concentration (IC50) in assay [1] and in assay [2] was above 1000 nM throughout.

On to `CCOc1ccc(-c2cncc(C(=O)NOCc3cc(N(C)C)cnc3F)n2)cn1` [Compound 42, N-((5-(dimethylamino)-2-fluoropyridine-3-yl)methoxy)-6-(6-ethoxypyridine-3-yl)pyrazine-2-carboxamide], for which the IC50 in assay [1] is below 500 nM; in assay [2], above 1000 nM.

Consider `COc1ccc(F)c(CONC(=O)c2cncc(-c3ccc(OC(C)C)nc3)n2)c1` [Compound 31, N-((2-fluoro-5-methoxybenzyl)oxy)-6-(6-isopropoxypyridine-3-yl)pyrazine-2-carboxamide], for which the IC50 is 500 to 1000 nM in assay [1] and above 1000 nM in assay [2].

Regarding `CN(C)c1ccc(F)c(CONC(=O)c2cncc(-c3ccc(OC(F)F)nc3)n2)c1` [Compound 81], the IC50 in assay [1] and in assay [2] was above 1000 nM throughout.

Regarding `COc1ccc(F)c(CONC(=O)c2cncc(-c3ccc([S+](C)[O-])cc3)n2)c1` (centres unmarked) [Compound 29, N-((2-fluoro-5-methoxybenzyl)oxy)-6-(4-(methylsulfinyl)phenyl)pyrazine-2-carboxamide], the IC50 in assay [1] and in assay [2] was above 1000 nM throughout.
